Results published in ChEMBL document CHEMBL1201862, “PubChem BioAssay data set” (2004).
Calls of active or inactive are those of the source.

Assays:
Prothrombin = Prothrombin (Homo sapiens, UniProt P00734); experiment: Thrombin 1536 HTS Dose Response Confirmation. [Related pubchem assays: 1046 (Thrombin 1536 HTS; hits were confirmed in this assay)]; format: functional
Cysteine protease ATG4B = Cysteine protease ATG4B (Homo sapiens, UniProt Q9Y4P1); format: functional;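 further: Fluorescence-based dose-response confirmation assay measuring inhibition of ATG4B activity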
Cysteine protease ATG4B, sequence (Q9Y4P1 whole entry): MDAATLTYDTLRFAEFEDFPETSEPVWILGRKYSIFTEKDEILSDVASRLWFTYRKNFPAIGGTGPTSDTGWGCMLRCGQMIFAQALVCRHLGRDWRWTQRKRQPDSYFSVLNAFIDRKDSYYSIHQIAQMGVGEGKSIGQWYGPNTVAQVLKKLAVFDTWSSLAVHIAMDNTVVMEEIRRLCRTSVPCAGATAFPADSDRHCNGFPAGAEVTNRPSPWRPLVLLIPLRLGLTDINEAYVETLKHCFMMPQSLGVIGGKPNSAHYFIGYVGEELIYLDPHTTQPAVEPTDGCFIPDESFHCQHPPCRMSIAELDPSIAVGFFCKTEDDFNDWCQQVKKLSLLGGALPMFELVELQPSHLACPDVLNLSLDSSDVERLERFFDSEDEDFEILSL

Phospholipase A2 = Phospholipase A2 (Homo sapiens, UniProt P04054); format: functional;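 further: confirmatory dose-response counterscreen on phospholipase A2, testing hits that came from an ultra-high-throughput screen for ATG4B inhibitors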
Phospholipase A2, sequence (P04054 whole entry): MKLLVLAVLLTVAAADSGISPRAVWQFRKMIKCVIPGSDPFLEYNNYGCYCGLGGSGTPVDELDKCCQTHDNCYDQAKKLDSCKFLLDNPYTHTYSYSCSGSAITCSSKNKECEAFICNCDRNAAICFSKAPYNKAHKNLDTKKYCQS

HEK293 = experiment: inhibitors of LMP1-driven NF-kB reporter, dose response, cell-based, HEK293, luciferase, cherry-pick (AID 588343); format: functional; conditions: Homo sapiens
[1] = molecular target: Latent membrane protein 1 (Human herpesvirus 4 (strain B95-8), UniProt P03230); experiment: TES1-eGFP NF-kB reporter inhibition versus Tet-On dsRED, dose response, selectivity assay for LMP1 NF-kB inhibitor project, imaging, HEK293T, dual-color eGFP/dsRED, cherry-picks (AID 588398); format: functional, cell-based
Latent membrane protein 1, sequence (P03230 whole entry): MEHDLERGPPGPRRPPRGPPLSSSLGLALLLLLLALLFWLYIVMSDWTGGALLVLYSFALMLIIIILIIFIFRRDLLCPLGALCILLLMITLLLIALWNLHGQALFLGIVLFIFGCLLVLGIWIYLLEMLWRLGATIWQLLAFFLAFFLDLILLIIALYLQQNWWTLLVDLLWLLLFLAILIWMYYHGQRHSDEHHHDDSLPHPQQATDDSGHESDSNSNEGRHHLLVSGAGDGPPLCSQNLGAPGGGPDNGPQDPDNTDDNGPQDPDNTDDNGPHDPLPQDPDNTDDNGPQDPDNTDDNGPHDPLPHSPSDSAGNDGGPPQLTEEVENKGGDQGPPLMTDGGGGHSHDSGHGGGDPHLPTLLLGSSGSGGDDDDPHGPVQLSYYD

[2] = Shn3 3'UTR reporter inhibitors, dose response, cell-based, Clone20 osteoblasts, firefly luciferase, cherry-picked (AID 624132); format: functional;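 further: firefly luciferase luminescence from reporter carrying the Shn3 3'UTR in osteoblasts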
[3] = HepG2 cell cytotoxicity, dose response, cytotoxicity control for Shn3 inhibitor project, CellTiter-Glo, cherry-picked (AID 624134); format: functional, cell-based
[4] = control 3'UTR Renilla luciferase suppression, dose response, counter-screen for Shn3 inhibitor project, cell-based, Clone20-Shn3RL, cherry-picked (AID 624133); format: functional
[5] = inhibitors of firefly luciferase expression or activity, dose response, H4 neuroglioma cells, luminescence (AID 1990); format: functional, cell-based
[6] = Luminescence Cell-Based Dose Response HTS to Identify Inhibitors of 5'UTR Stem-Loop Driven Prion Protein mRNA Translation in H4 Neuroglioblastoma Cells. [Related pubchem assays: 1827 (Project Summary), 1813 (Primary HTS)]; format: functional
[7] = inhibitors of SNCA 5'UTR-driven reporter translation, confirmation, H4 neuroglioma cells, luminescence (AID 1988); format: functional, cell-based
[8] = molecular target: T1, Apoptotic protease-activating factor 1 (Homo sapiens, UniProt O14727); format: functional
T1 sequence (O14727 whole entry): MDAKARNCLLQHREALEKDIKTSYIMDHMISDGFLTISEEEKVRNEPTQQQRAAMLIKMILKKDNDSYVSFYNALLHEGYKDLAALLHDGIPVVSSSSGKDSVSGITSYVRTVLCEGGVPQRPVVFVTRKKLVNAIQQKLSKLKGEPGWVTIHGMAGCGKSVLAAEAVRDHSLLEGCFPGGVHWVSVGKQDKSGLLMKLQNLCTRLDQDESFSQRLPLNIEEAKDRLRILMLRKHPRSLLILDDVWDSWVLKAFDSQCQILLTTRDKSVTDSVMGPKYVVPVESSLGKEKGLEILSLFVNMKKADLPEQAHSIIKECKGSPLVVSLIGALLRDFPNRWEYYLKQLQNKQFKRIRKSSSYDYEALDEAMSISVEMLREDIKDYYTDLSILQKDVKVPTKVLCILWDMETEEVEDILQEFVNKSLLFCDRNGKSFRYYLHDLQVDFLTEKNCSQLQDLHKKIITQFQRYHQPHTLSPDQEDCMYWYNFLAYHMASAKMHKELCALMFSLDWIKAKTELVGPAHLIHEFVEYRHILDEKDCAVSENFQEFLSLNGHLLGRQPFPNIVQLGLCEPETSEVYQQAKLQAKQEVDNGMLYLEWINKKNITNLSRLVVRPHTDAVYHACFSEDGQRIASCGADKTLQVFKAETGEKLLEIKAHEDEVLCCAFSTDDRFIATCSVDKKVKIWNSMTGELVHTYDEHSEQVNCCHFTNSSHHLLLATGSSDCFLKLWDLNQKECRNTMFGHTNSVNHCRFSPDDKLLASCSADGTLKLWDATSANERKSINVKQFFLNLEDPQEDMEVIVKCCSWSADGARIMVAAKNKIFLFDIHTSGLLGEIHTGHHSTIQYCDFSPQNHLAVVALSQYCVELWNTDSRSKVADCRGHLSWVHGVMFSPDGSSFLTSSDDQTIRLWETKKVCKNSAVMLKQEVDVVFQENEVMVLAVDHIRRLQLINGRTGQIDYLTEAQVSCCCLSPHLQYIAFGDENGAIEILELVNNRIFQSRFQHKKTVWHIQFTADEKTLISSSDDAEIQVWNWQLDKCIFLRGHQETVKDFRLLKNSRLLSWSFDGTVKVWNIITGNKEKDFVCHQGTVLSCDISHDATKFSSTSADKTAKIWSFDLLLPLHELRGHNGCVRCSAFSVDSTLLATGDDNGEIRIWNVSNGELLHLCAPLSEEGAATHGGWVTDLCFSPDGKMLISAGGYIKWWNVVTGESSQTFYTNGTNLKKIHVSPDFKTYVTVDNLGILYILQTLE

Vero [9] = experiment: Vero cell cytotoxicity, cytotoxicity control for flavivirus capping enzyme inhibitors (AID 588742); format: functional; conditions: Chlorocebus sabaeus
Genome polyprotein = Genome polyprotein (dengue virus type 2, UniProt P29990); experiment: Dengue-2 NS5 methyltransferase inhibitors, primary screen, biochemical, confirmation dose response (AID 588689); format: functional
Genome polyprotein, sequence (P29990 2492-3391 limits assumed): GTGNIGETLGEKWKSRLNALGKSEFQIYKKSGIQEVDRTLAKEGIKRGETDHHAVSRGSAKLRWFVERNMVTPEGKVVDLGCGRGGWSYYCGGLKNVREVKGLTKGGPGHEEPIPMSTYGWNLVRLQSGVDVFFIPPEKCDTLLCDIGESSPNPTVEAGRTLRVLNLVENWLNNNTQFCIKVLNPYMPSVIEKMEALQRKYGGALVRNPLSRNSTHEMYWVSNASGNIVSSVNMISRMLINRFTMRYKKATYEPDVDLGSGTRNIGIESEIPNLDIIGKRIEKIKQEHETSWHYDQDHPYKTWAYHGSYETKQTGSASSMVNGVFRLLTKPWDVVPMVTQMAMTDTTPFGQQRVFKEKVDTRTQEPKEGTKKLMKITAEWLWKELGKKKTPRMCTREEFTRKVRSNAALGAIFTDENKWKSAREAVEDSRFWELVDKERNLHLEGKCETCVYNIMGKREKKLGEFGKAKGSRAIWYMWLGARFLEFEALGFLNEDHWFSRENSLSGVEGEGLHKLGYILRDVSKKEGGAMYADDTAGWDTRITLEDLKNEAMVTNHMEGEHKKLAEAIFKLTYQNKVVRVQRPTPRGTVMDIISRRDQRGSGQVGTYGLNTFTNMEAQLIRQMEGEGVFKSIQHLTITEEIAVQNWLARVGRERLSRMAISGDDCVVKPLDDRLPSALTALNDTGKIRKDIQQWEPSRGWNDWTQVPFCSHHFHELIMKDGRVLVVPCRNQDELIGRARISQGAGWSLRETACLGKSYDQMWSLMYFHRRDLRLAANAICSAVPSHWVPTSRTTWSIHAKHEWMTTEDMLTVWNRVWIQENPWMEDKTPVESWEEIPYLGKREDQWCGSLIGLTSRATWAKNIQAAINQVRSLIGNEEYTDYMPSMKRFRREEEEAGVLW

[10] = molecular target: T2, RNA-binding protein pos-1 (Caenorhabditis elegans, UniProt G5EF15); experiment: inhibitors of POS-1/mex-3 RNA binding, dose response, biochemical, fluorescence polarization (AID 1964);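 further: purified POS-1 fused to maltose binding protein made in E. coli; potency of compounds blocking POS-1 binding to fluorescent RNA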
T2 sequence (G5EF15 whole entry): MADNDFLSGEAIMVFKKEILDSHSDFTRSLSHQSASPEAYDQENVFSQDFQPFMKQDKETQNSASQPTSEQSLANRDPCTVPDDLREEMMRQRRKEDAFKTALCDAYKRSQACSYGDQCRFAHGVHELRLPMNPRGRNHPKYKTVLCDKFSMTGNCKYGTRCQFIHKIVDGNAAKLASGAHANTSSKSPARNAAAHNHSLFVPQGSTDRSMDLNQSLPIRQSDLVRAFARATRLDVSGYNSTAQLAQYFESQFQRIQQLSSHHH

[11] = molecular target: T3, Zinc finger protein mex-5 (Caenorhabditis elegans, UniProt Q9XUB2); experiment: MEX-5/TCR-2 RNA interaction inhibitors, dose response, biochemical, C. elegans, fluorescence polarization (AID 1960)
T3 sequence (Q9XUB2 whole entry): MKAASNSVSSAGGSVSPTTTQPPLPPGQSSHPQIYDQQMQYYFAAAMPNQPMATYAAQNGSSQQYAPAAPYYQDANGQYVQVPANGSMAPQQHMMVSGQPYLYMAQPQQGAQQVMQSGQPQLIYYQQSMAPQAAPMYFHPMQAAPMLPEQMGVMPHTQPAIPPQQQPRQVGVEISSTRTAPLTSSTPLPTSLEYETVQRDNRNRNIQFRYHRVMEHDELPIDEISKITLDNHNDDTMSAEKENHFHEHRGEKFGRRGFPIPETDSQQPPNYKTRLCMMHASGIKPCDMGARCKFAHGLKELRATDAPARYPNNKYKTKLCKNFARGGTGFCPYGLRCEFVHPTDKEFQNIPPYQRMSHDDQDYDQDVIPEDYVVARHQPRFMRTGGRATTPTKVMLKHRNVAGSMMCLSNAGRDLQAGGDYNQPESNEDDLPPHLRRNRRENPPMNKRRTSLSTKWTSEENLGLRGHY

[12] = inhibitors of intracellular T. cruzi replication, confirmation, NIH3T3 host cells, beta-gal luminescence (AID 2044); format: functional, cell-based;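 further: intracellular parasites grown in NIH/3T3 mouse fibroblasts as host cells; luminescent beta-galactosidase reporter signal from transgenic T. cruzi replicating inside host cells; inhibitors lower the luminescence signal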
[13] = cytotoxicity toward NIH3T3 fibroblasts, dose response, counter-screen, cell-based, ATP luminescence, mouse fibroblasts (AID 2010); format: functional;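 further: cells exposed to compound for about 90 hours before reading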
[14] = cytotoxicity in HEK-293T cells, dose response, cytotoxicity control for BCR NF-kB inhibitor project, luminescence, B-cell screen hits (AID 489021); format: functional, cell-based;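 further: HEK-293T cells carrying an NF-kB luciferase reporter; cells exposed to compound for about 14 hours before viability readout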
Protein skinhead-1 = molecular target: T4, Protein skinhead-1 (Caenorhabditis elegans, UniProt P34707); format: functional
T4 sequence (P34707 whole entry): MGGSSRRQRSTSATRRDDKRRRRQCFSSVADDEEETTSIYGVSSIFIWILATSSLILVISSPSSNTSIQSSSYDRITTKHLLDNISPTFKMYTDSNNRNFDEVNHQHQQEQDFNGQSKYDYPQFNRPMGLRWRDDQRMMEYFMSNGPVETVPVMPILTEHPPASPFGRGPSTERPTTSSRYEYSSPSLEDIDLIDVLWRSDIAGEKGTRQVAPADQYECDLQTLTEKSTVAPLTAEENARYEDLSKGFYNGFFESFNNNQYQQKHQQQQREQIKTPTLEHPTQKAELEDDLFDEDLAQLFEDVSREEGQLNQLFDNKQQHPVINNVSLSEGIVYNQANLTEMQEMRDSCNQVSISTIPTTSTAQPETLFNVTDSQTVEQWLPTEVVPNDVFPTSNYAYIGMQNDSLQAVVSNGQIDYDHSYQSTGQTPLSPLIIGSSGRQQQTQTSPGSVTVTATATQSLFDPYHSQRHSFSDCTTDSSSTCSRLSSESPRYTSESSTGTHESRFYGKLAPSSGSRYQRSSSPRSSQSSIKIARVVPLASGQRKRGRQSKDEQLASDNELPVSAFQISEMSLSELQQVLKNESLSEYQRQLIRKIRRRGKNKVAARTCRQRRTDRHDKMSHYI

[15] = molecular target: Beta-2 adrenergic receptor (Homo sapiens, UniProt P07550); experiment: beta2AR agonists driving receptor internalization, dose response, cell-based, FAP fluorogen, flow cytometry, cherry pick 1 (AID 588763); format: functional
Beta-2 adrenergic receptor, sequence (P07550 whole entry): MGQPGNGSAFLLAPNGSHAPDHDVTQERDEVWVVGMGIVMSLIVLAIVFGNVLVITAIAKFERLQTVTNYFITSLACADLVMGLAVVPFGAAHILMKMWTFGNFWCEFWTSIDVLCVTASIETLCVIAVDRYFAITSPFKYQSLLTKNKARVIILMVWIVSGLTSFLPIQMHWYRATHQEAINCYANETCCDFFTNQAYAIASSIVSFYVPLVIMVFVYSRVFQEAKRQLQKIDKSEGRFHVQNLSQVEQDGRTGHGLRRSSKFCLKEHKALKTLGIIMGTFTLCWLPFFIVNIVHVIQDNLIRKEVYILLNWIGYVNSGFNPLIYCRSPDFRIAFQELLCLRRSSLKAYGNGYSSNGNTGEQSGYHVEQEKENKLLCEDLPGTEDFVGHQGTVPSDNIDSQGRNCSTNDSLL

[16] = NIH-3T3 fibroblast cytotoxicity, dose response, cytotoxicity control, cell-based, fluorescence, Alamar Blue, secondary assay (AID 2327); format: functional;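 further: NIH-3T3 mouse fibroblasts cultured with fluconazole at 8 µg/mL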
[17] = tested on: Streptococcus sp. 'group A'; experiment: growth inhibition of control SK(-) GAS strain, dose response, counter-screen for streptokinase expression inhibitor project, luminescence, kanamycin, BacTiterGlo, confirmation (AID 1900); format: functional, organism-based
[18] = C. albicans growth with fluconazole, confirmation, fluorescence, retest (AID 2467); format: functional, cell-based
[19] = molecular target: Serine/threonine-protein phosphatase (Candida dubliniensis (strain CD36 / CBS 7987 / NCPF 3949 / NRRLY-17841) (Yeast), UniProt B9W6M3); experiment: calcineurin pathway inhibitors in yeast reporter, dose response, S. cerevisiae, CDRE-lacZ, luminescence, secondary (AID 2388); format: functional, cell-based;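 further: yeast reporter cells carrying a calcineurin-responsive lacZ construct stimulated with calcium chloride; luminescent beta-galactosidase reporter signal in whole cells rather than isolated phosphatase activity; potency for inhibition where a drop in reporter signal means calcineurin blockade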
Serine/threonine-protein phosphatase, sequence (B9W6M3 whole entry): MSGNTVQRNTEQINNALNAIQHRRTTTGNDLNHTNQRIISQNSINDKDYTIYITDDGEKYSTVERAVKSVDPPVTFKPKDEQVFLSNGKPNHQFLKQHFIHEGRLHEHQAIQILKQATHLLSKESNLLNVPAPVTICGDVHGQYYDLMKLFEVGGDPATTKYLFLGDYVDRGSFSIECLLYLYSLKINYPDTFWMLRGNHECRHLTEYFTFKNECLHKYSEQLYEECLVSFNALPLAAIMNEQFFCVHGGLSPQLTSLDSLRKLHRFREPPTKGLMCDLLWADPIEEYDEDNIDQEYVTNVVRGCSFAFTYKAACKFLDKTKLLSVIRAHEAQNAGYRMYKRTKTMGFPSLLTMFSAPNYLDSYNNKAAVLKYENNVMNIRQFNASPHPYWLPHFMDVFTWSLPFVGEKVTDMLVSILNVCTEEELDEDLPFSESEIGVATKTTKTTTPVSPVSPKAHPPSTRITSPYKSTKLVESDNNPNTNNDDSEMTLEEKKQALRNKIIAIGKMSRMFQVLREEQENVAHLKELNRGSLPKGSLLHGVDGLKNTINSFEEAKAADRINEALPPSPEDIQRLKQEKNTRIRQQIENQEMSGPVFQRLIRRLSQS

Streptococcus = experiment: Group A Streptococcus viability loss, dose response, counter-screen for streptokinase expression inhibitor project, luminescence, BacTiterGlo (AID 1915); format: functional, organism-based;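 further: potency for reduction of bacterial viability or growth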
Vero [20] = experiment: cells; format: functional; conditions: Chlorocebus sabaeus
[21] = molecular target: ATP-dependent molecular chaperone HSP82 (Candida albicans (strain WO-1) (Yeast), UniProt C4YTQ8); experiment: loss of DOC-induced GRE-beta-galactosidase reporter signal, dose response, Hsp90 inhibitor project, S. cerevisiae, luminescence (AID 2400); format: functional, cell-based;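 further: beta-galactosidase luminescence from glucocorticoid response element reporter as proxy for Hsp90 function; inhibitor potency where signal loss means Hsp90 inhibition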
ATP-dependent molecular chaperone HSP82, sequence (C4YTQ8 whole entry): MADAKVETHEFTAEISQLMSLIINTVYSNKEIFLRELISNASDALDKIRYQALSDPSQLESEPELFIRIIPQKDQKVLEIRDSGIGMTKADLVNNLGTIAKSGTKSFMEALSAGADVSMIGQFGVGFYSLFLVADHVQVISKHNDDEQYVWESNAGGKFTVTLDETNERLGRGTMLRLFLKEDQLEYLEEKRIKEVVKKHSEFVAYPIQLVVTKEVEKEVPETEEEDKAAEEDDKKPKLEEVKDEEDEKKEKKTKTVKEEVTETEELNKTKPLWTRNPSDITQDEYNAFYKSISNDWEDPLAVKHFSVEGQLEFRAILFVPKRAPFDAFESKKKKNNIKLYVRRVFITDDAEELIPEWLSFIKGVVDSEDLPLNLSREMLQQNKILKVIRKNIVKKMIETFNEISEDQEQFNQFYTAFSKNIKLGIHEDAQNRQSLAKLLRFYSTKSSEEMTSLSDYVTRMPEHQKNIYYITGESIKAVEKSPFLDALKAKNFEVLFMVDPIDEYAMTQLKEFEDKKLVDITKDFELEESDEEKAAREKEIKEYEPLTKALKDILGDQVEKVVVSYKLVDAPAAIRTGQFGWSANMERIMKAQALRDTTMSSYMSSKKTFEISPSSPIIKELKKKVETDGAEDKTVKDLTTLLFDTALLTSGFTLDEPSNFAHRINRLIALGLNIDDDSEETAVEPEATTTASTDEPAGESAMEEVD

Beta-galactosidase = Beta-galactosidase (Escherichia coli, UniProt Q8VNN2); experiment: PubChem AID 485352; format: functional
Beta-galactosidase, sequence (Q8VNN2 whole entry): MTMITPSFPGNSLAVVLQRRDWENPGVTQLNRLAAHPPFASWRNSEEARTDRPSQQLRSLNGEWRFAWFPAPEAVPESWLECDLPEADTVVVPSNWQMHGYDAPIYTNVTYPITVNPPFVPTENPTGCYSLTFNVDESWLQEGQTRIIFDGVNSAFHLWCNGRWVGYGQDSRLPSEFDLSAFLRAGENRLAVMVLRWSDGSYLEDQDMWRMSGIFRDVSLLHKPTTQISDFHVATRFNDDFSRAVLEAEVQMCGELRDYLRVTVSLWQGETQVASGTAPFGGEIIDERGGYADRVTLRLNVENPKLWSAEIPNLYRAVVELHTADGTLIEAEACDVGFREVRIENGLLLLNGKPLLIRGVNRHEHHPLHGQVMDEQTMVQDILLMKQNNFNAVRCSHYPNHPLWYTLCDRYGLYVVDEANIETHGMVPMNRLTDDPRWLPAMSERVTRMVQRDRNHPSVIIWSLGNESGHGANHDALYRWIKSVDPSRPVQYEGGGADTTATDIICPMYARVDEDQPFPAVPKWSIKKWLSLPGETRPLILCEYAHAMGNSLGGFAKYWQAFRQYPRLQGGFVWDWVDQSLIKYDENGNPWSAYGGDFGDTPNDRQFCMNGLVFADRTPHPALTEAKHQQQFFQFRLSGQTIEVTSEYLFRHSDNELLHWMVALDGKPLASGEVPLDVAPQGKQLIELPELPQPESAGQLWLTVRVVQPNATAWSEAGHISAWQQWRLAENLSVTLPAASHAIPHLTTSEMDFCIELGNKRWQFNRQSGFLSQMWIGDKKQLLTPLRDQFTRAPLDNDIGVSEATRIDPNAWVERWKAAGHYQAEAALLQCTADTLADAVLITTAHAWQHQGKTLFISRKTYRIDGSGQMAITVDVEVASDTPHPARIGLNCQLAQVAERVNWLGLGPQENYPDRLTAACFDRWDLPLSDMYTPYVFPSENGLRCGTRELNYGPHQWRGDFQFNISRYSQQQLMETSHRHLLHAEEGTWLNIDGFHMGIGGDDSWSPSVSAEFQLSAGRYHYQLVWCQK

[22] = molecular target: T5, Type-1 angiotensin II receptor (Homo sapiens, UniProt P30556); experiment: AT1 receptor antagonists, dose response, selectivity assay for APJ receptor antagonist project, cell-based, uHTS hits (AID 463214); format: functional;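 further: antagonist potency against angiotensin II stimulated AT1 response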
T5 sequence (P30556 whole entry): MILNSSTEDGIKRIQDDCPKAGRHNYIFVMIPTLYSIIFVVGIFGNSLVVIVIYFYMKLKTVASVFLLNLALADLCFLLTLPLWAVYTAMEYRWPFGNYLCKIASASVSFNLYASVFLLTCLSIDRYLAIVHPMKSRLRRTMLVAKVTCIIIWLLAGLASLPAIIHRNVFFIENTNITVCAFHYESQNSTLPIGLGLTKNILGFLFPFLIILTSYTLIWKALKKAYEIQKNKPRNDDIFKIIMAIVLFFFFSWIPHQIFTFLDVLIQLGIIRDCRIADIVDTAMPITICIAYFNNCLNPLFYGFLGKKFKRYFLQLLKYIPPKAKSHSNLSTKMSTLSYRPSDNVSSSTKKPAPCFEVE

## O=C(NN=C1CCCCCC1)c1cn(-c2ccccc2)nc1-c1ccccc1
Prothrombin
  IC50: > 50 µM (not active)
Cysteine protease ATG4B
  IC50: 13.8 µM (active)
Phospholipase A2
  IC50: 20.8 µM (inactive)

## CC(C)(O)C#Cc1ccc([C@@H]2C[C@H]3CN(c4ccccc4)C(=O)[C@]34CCCN24)s1
HEK293
  AC50: 11.9 µM (active)
[1]
  AC50: 5.64 µM (active)
[2]
  AC50: 4.93 µM (active)
[3]
  AC50: > 70 µM (inactive)
[4]
  AC50: > 70 µM (inactive)

## Cc1c(CCC(C)C)c(O)n2c(nc3ccccc32)c1C#N
[5]
  EC50: 69.3 µM (active)
[6]
  EC50: > 120 µM (not active)
[7]
  EC50: > 120 µM (not active)
[8]
  IC50: 38.6 µM (active)

## O=C(NCC(c1cccs1)N1CCOCC1)c1ccccc1NS(=O)(=O)c1ccc(Cl)c([N+](=O)[O-])c1 (centres undefined)
Vero [9]
  CC50: 38.8 µM (active)
Genome polyprotein
  IC50: > 100 µM (active)

## CCc1ccc(/C=C2\SC(=S)N(CCCC(=O)Nc3ccccn3)C2=O)cc1
[10]
  EC50: 27.1 µM (active)
[11]
  EC50: 24.6 µM (active)
[12]
  EC50: 1.83 µM (active)
[13]
  EC50: 54.8 µM (active)
[14]
  IC50: > 80 µM (inactive)
HEK293
  AC50: 4.92 µM (active)
[1]
  AC50: 16.2 µM (active)
Protein skinhead-1
  IC50: > 100 µM (inactive)

## Cc1ccc(NC(=O)C(c2ccc(Cl)cc2)N2CCCCC2)cc1 (centres undefined)
[15]
  EC50: 2.99 µM (active)

## COc1ccc(C(=O)NC(=S)NNC(=O)c2ccc(C)cc2)cc1
[16]
  EC50: > 150 µM (inactive)
[17]
  EC50: 0.361 µM (active)
[18]
  EC50: 1.12 µM (active)
[19]
  EC50: > 180 µM (inactive)
Streptococcus
  EC50: 6.72 µM (active)
Vero [20]
  CC50: > 25 µM (active)
[21]
  EC50: 5.92 µM (active)

## COc1ccc(N2C(=O)c3ccccc3NC23CCC(C)CC3)cc1 (centres undefined)
Cysteine protease ATG4B
  IC50: 21.1 µM (inactive)
Phospholipase A2
  IC50: 7.99 µM (active)

## CC(C)NC(=S)N/N=C1\CCCCC1C1CCCCC1 (centres undefined)
Beta-galactosidase
  EC50: > 40 µM (inactive)
[22]
  IC50: > 40 µM (not active)
